From patent publication US20150344535A1, “NEUROTROPHIN-TYROSINE KINASE RECEPTOR SIGNALING” (THE UNIVERSITY OF QUEENSLAND, priority 2012, published 2015) come the findings set out here.

For one assay, the system named is TrkA. Nature of the assay: Biotinylated peptide pull down of TrkA. The class given is binding. The following applies: TrkA pull downs, FIG. 15F. On the procedure: For peptide pull down assays, the biotinylated c29 or LC1 control peptides were incubated with protein A-sepharose beads or Dynabeads MyOne Streptavidin T1 (Invitrogen) overnight at 4° C. Cell lysates were then added to the peptide-protein A-sepharose complex or Dynabeads MyOne Streptavidin T1 and incubated for 3 hours at 4° C. Peptide-receptor complexes were washed extensively with RIPA lysis buffer and eluted by boiling in Laemmli sample buffer. For p75^NTR construct immunoprecipitations, HEK293 cells were treated with NGF at 50 ng/ml for 10 minutes 48 hours after transfection with 1 μg DNA per well. Cells were immediately harvested in ice-cold phosphate buffered saline (PBS) and washed twice, then lysed in 1 ml of lysis buffer. Cell lysates were pre-cleared in 75 μl (1:2) protein-G sepharose: PBS by rotation end-over-end for 2 hours at 4′C. Lysates were then incubated with 3-5 μg antibody, either mouse-anti-YFP/GFP (Roche) or rabbit-anti-human p75^NTR intracellular domain antibody (Promega), and rotated end-over-end for 2 hours at 4° C.
(§1) Immunoprecipitation was performed by the addition of 75 μl (1:2) protein-G sepharose: PBS and incubation end-over-end for 16 hours at 4° C. The immunoprecipitate was washed 4 times with 1 ml of PBS then eluted in 60 μl 2×LDS sample buffer. For immunoblotting, samples were boiled for 5 minutes, separated by SDS-PAGE and transferred onto nitrocellulose membranes, then western blotted using standard protocols (see Example 1 for antibodies used).
The c29 peptide was labelled with biotin and attached to a sepharose bead column. Lysates from cells was passed over the column followed by several wash steps. The proteins that bound to the c29 peptide (proteins that are pulled down) were eluted from the column with SDS buffer and separated in size by SDS-PAGE electrophoresis. The gel was Western blotted and the membrane probed with antibodies to proteins of interest.

Assay [1] concerns PC12 cells. Nature of the assay: PC12 cell neurite outgrowth in response to NGF. The format is cell-based. The following applies: for neurite growth: fragments incubated with PC12 cells and NGF, FIG. 16. On the procedure: (§2) To assess the effect of p75^NTR constructs (FIG. 2) or c29 peptide on TrkA-mediated neuritogenesis, transfected PC12 cells were grown in the presence of 100 ng/ml NGF for 3 days, with fresh medium and NGF treatments added on day 2. Cells were then imaged live on an Olympus (IX81) microscope fitted with a CO2 atmospheric chamber, using analySIS software. Four random images of 80-100 cells were taken for each treatment condition and images were determined by measuring polygon neurite length of all cells in each image. Data analysis was performed using Graphpad PRISM.
Once PC12 cells are fully differentiated, they become dependent on NGF for survival (Greene, 1978), but can survive if grown in the presence of lower concentrations of NGF (Greene and Tischler, 1976). To determine if c29 could potentiate TrkA-mediated signals, PC12 cells were cultured in the presence of NGF concentrations ranging from 1-100 ng/ml for 5 days, following serum starvation and pre-incubation with c29, scrambled control peptide or no peptide (FIG. 5A). […] Peptides (1 μM) were added to the cultures every 48 hours at the time of NGF addition and medium exchange.

The subject of assay [2] is PC12 cells. Nature of the assay: PC12 cell neurite outgrowth in response to NGF. The class given is cell-based. The following applies: NGF plus secretase inhibitor over 5 days.
For assay [3], the system named is PC12 cells. Nature of the assay: PC12 cell neurite outgrowth in response to EGF. The following applies: EGF plus secretase inhibitor, 5 days. The format is cell-based. On the procedure: as §2
To determine whether the effect of the c29 peptide on enhancement of neurite outgrowth was NGF and TrkA specific, we repeated the experiment using EGF to stimulate differentiation.

Assay [4] has as its system PC12 cells. Nature of the assay: NGF-FITC binding by flow cytometry, PC12 cells. The settings on record: NGF-FITC, c.f. PC12. Here is the method:
The NGF was conjugated to FITC by standard methods and detailed flow cytometry acquisition and analysis. For NGF-FITC conjugation 400 μg βNGF in 200 μl pH 8.5 NaHCO3 buffer was mixed with 5-10 μl of 10 mg/ml FITC in 100 μl DMSO for 10 hours at 4° C. on an orbital shaker set to 100 rpm. The excess FITC was removed by dialysis against 3 changes of 5 L of 10 mM Tris, 150 mM NaCl, 0.2% acetic acid, pH 8.2 for 24 hours at 4° C. Conjugate F/P characterization was determined by measuring absorbance at 280 nm and 495 nm according to manufacturer's instructions. Biological activity of the NGF-FITC conjugate was tested by performing PC12 cell neurite outgrowth assays unlabelled NGF, and comparing the levels of neuritogenesis. NGF-FITC conjugates were used within 4 weeks of synthesis.
For the flow cytometry NGF binding assays, fluorescence cell parameters of at least 20,000 events for PC12 cells and 100,000 events for HEK293 cells were acquired by flow cytometry list mode and measurements were performed on a single cell basis (with compensation for double event counting). Dead cells and debris were gated out of the analysis on the basis of forward scatter fluorescence, and mean, median and maximal fluorescence values of the gated cell populations were analysed using FACS Diva Software (Becton-Dickinson Biosciences) and FACS Express Software (Becton-Dickinson Biosciences).
(§3) Background fluorescence of HEK293 cells was non-transfected cells (±c29 or scrambled peptide treatment) treated with 26 nM NGF-FITC. For PC12 cells, the control population was cells that had not been treated with NGF-FITC. Analysis of real-time NGF-FITC receptor binding experiments was performed on 550,000-600,000 cells at 4° C. in serum free NB medium and binding kinetics were calculated from raw data files compressed to 50,000 binding events using FlowJo and MatLab Software. Data was plotted with the use of GraphPad Prism.
(§4) Only NGF-FITC preparations that promoted equivalent neurite outgrowth of PC12 cells to that of unlabelled NGF were used in binding experiments. To investigate NGF binding, PC12 or transfected HEK293 cells were serum starved for 4 hours, harvested, washed with Dulbecco's Modified Eagle Medium (DMEM), and counted. When used, c29 or scrambled peptide were added to cultures for the third hour of the serum starvation procedure. 1×10^7 cells/ml suspended in 500 μl of serum-free DMEM were incubated with 26 nM NGF-FITC on ice for 60 minutes before analysis. For binding competition assays, following 1 hour in NGF-FITC, cells were washed with ice-cold PBS containing 0.1% normal bovine serum and incubated on ice with unlabeled NGF at concentrations ranging from 100 pM to 10 μM for 30 minutes, then washed twice in PBS before being analysed on a BD Flow Cytometer FACS Scan (Becton-Dickinson).
First, to determine the concentration of c29 required to modulate NGF binding, c29 levels were titrated with a fixed concentration of NGF-FITC.

The subject of another assay is TrkA and p75^NTR. Nature of the assay: Surface biotinylation of receptors in PC12 cells. The format is cell-based. The following applies: 1 μM peptide, with or without NGF. Here is the method:
FIG. 10: The juxtamembrane domain of p75^NTR increases the association of NGF to cells expressing TrkA. (A and B) Dose response graphs of the proportion (%) of PC12 cells with fluorescence intensity above background following treatment with 26 […] NGFFITC, a FITC-conjugated antibody to the extracellular domain of p75^NTR (A), or an antibody to TrkA (detected using an anti-rabbit Alexa 594 secondary) (B), after pretreatment with increasing concentrations of […] peptide. (n=3 experiments per data point; mean±SEM *p<0.05, **p<0.01) (C) Representative western blots (WB) of TrkA and p75^NTR present in streptavidin precipitates (surface biotin), or lysate flow through of PC12 cells that had been treated for 1 hour with NGF and/or c29 and scrambled (SC) peptide, prior to the surface proteins being labelled with biotin for 90 minutes on ice.

The subject of a further assay is p75^FL. As to the kind of experiment: Production of endogenous p75^CTF or p75^ICD fragments in p75^FL-transfected HEK293 cells. The format is cell-based. The following applies: vs untreated cells, data not shown.
For another assay, the system named is pErk1/2 and pAkt. As to the kind of experiment: Western blot of pErk1/2 and pAkt in PC12 cell lysates. The format is cell-based. The settings on record: absence of NGF, 24 hours. On the procedure:
In biochemical experiments, PC12 and HEK293 cells were lysed for 20 minutes on ice in lysis buffer as described by (Ceni et al., 2010). Briefly, the lysis buffer contained 10 mM Tris-HCl, 150 mM NaCl, 2 mM EDTA, 1% (v/v) NP-40, 1% (v/v) TX-100, 10% Glycerol, 1 mM PMSF, 1 mM Sodium Orthovanadate, 1 μM BB94, 1% (v/v) Roche protease inhibitor cocktail and pH 8.0 (Ceni et al., 2010).
as §1
The observed functional effects on neurite outgrowth and survival were next correlated with enhanced activation of signal transduction pathways that mediate the trophic effects of TrkA. Lysates of cells treated for 24 hours with NGF alone or in combination with c29 or scrambled peptide were immunoblotted for pErk1/2 (neurite outgrowth), and the serine/threonine protein kinase Akt (survival). […] Total levels of Erk1/2 or Akt were unaffected by any treatment (FIG. 6 A, B).
Background: A western blot detects proteins with antibodies after separation by electrophoresis.

The subject of another assay is HEK293 cells. Nature of the assay: NGF-FITC binding by flow cytometry, non-transfected HEK293 cells. Here is the method:
as §3
as §4, with “1×10^7 cells/ml suspended in 500 μl of serum-free DMEM were incubated with 26 nM NGF-FITC on ice for 60 minutes before analysis.” left out
(In flow cytometry, cells or beads pass a laser one at a time.)

Assay [5] has as its system primary E13 motor neurons. As to the kind of experiment: Primary motor neuron survival and growth factor withdrawal. The format is cell-based, mouse. The settings on record: 1 ng/ml BDNF plus NGF.
Protocol: Briefly, pregnant mothers were sacrificed by cervical dislocation and the uterus removed by Caesarean section and placed in Neurobasal medium. Lumbar spinal cords were dissected from E13 embryos on ice. Batches of 2 or 3 spinal cords were incubated in 1 mL 0.05% trypsin-ETDA for 10 minutes at 37° C. in 15 mL tubes. To prevent further trypsinisation, 0.14 mg/mL trypsin inhibitor solution was added and the tissue centrifuged at 100×g for 7 minutes, without acceleration or deceleration. The supernatant was removed and the spinal cord tissue was resuspended in 1 mL of Neurobasal Medium (NB). In order to obtain a single cell suspension, each batch of 2-3 spinal cords was agitated manually for 2 minutes. The suspension was allowed to settle and the supernatant collected after being filtered through a 100 μm sieve. The remaining tissue was further triturated ˜8 times through a P200 pipette and filtered through a 100 μm sieve. The combined supernatants were then separated by centrifugation on a 5 ml cushion of 9% (vol/vol) OptiPrep® gradient in NB containing 2% B27 supplement for 45 min at 850×g, without acceleration or deceleration. To prevent toxicity following Optiprep® separation, the layer containing MNs was harvested into 10 mL of NB containing 10% HS, and the cell suspension was centrifuged at 900×g for 7 minutes at 24° C., without acceleration or deceleration. The supernatant was removed and the cell pellet was resuspended in 1 mL of NB medium.
The number of viable motor neurons was counted on a haemocytometer using 0.08% trypan blue and neurons plated in 4-well culture dishes at a density of 3,000 cells per well in 100 μL NB containing 10% HS. […] Primary motor neurons were maintained at 37° C. in a humidified atmosphere with 5% CO2 and culture medium was replaced at day 1 and 3. Phase contrast images of motor neurons were taken using an Olympus (6IX81) microscope after motor neurons were grown in vitro for up to 7 days.
To assess the effects of c29 peptide on motor neuronal survival in limiting growth factor concentrations, isolated spinal motor neurons were plated and treated with 0.01, 0.1 or 1.0 ng/ml of BDNF in the presence of 1 μm PTD4-linked c29 or scrambled peptide, and cultured for 5 days with the addition of fresh BDNF and peptide treatments on day 2 and 4. For growth factor-withdrawal assays, following initial plating in 1 ng/ml of BDNF, CNTF or GDNF, cultures were washed four times with serum-free Neurobasal (NB) medium, after which the medium was replaced with medium containing 1-0.01 ng/ml of BDNF, CNTF or GDNF and 1 μM PTD4-linked c29 or scrambled peptides, as indicated. For assays investigating the effect of c29 on NGF-mediated motor neuron death, cultures were grown in 1 ng/ml BDNF, CNTF or GDNF for 1 day, before being treated with 100 ng/ml 2.5S NGF in and 1 μM PTD4-linked c29 or scrambled peptide, as indicated. Motor neurons were counted on day 1, and to assess the effects of various treatments days 3 and 5 (4 separate 10×10 grid fields of each well per experiment).

Take “KRWNSCKQNKQGAN (c1-14 - Fragment of p75ICD) [(1-14)]”: the “TrkA binding of biotinylated fragments” value with TrkA was “clearly bind TrkA”. In the assay with PC12 cells [1], the neurite growth entry is given as “stimulated neurite growth”.

As to “SRPVNQTPPPEGEKL (c15-29 - Fragment of p75ICD) [(15-29)]”, the “TrkA binding of biotinylated fragments” value in the assay on TrkA is “clearly bind TrkA”. The neurite growth result with PC12 cells [1] was “stimulated neurite growth”.

As to `C[C@H](NC(=O)Cc1cc(F)cc(F)c1)C(=O)N[C@H]1N=C(c2ccccc2)c2ccccc2N(C)C1=O` [compound E, (S,S)-2-[2-(3,5-Difluorophenyl)-acetylamino]-N-(1-methy-2-oxo-5-phenyl-2,3-dihydro-1H-benzo[e][1,4]diazepin-3-yl)-propionamide], in the assay with PC12 cells [2], the neurite length was found to be 20 μm. The “PC12 cell differentiation induced by EGF” value with PC12 cells [3] is reported as “neither the α- nor the γ-secretase inhibitor had any significant effect”.

With “(22-29): truncated peptide fragment of c29, residues 22-29 (PPPEGEKL)”, the “TrkA binding of biotinylated fragments” value in the assay on TrkA is “clearly bind TrkA”. Moreover, the neurite growth result with PC12 cells [1] was “stimulated neurite growth”.

On to KRWASA [c1-6C6A], for which, in the assay on PC12 cells [1], the neurite growth result was “stimulated neurite growth”.

As to “SKGQVCRNQPGQNKPEPANKSWKETPLRN [SC, randomly scrambled version of c29, reference compound]”, in the assay on PC12 cells [4], the “% of cell population with FITC above background” value worked out at 100.3 ± 5.1%, the “Maximal fluorescence per cell of the population” value is on record as 100.4 ± 9.6%, the “Mean fluorescence per FITC-positive cell” value was found to be 95.3 ± 7.4% and the Median population fluorescence worked out at 97.0 ± 3.8%. Also, the “surface or total receptor levels of TrkA and p75^NTR” value in the assay with TrkA and p75^NTR is “no significant difference”. In addition, the “rate of production of endogenous p75^CTF or p75^ICD fragments” value in the assay on p75^FL was “did not differ significantly”. In the assay with pErk1/2 and pAkt, the pAkt signalling result is given as “no effect” and the pErk1/2 signalling entry is “no effect”. Besides, the “fluorescence of nontransfected cells incubated with peptide and NGF-FITC” value in the assay on HEK293 cells is reported as “only background levels of fluorescence”. Further, in assay [5], the “NGF-induced cell death of motor neurons” value is given as “no effect”. Besides, the median neurite outgrowth entry in the assay on PC12 cells [1] (100 ng/ml NGF, day 5, peptide 1 μM, vs untreated cultures) is listed as “no difference”.

Turning to KRWASC [c1-6N4A], the neurite growth result in the assay with PC12 cells [1] was “stimulated neurite growth”.

For the molecule ARWNSC [c1-6K1A], the neurite growth entry with PC12 cells [1] is “stimulated neurite growth”.

On to `CC(C)C[C@H](CC(=O)NO)C(=O)N[C@H](C(=O)N[C@@H](C)C(=O)NCCN)C(C)(C)C` [TAPI-2, N—(R)-(2-(Hydroxyaminocarbonyl)Methyl)-4-Methylpentanoyl-L-t-Butyl-Glycine-L-Alanine 2-Aminoethyl Amide], for which the neurite length in the assay with PC12 cells [2] was 20 μm. Moreover, the “PC12 cell differentiation induced by EGF” value with PC12 cells [3] is given as “neither the α- nor the γ-secretase inhibitor had any significant effect”.

Consider “KRWNSC (c1-6 - Fragment of p75ICD) [(1-6)]”, for which the “TrkA binding of biotinylated fragments” value with TrkA was “clearly bind TrkA”. Besides, the neurite growth result with PC12 cells [1] is reported as “stimulated neurite growth”.
